Results published in ChEMBL document CHEMBL4265897, “Discovery of benzothiazole amides as potent antimycobacterial agents” (Bioorg Med Chem Lett, 2018).
pIC50: −log10 of the molar value. In brackets after ≈: the same amount, converted by molar mass. Activity calls are given as the source filed them. No cut-off for these calls is given here.

Tests used:
[1] = system: Mycobacteroides abscessus; experiment: Antimycobacterial activity against Mycobacterium abscessus ATCC 19977 by CLSI method; type: functional
[2] = system: Mycolicibacterium fortuitum; experiment: Antimycobacterial activity against Mycobacterium fortuitum 41 by CLSI method; type: functional
[3] = system: Mycobacteroides abscessus; experiment: Antimycobacterial activity against Mycobacterium abscessus 103 by CLSI method; type: functional
[4] = system: Mycobacteroides abscessus; experiment: Antimycobacterial activity against Mycobacterium abscessus 21 by CLSI method; type: functional
[5] = system: Mycobacteroides abscessus; experiment: Antimycobacterial activity against Mycobacterium abscessus 1 by CLSI method; type: functional
Mycobacterium avium = experiment: Antimycobacterial activity against Mycobacterium avium 101 by CLSI method; type: functional
[6] = system: Mycobacterium intracellulare; experiment: Antimycobacterial activity against Mycobacterium intracellulare 1956 by CLSI method; type: functional
[7] = system: Mycobacteroides abscessus; experiment: Antimycobacterial activity against Mycobacterium massiliense 119 by CLSI method; type: functional, Mycobacterium abscessus subsp. massiliense
[8] = system: Mycobacteroides abscessus; experiment: Antimycobacterial activity against Mycobacterium abscessus 79 by CLSI method; type: functional
Mycobacteroides chelonae = experiment: Antimycobacterial activity against Mycobacterium chelonae 93 by CLSI method; type: functional
[9] = system: Mycolicibacterium peregrinum; experiment: Antimycobacterial activity against Mycobacterium peregrinum ATCC 700686 by CLSI method; type: functional
Cytochrome P450 3A4 [10] = target: T1, Cytochrome P450 3A4 (Homo sapiens, UniProt P08684); experiment: Inhibition of CYP3A4 (unknown origin) using midazolam as substrate; type: ADME
T1 sequence (P08684 whole entry): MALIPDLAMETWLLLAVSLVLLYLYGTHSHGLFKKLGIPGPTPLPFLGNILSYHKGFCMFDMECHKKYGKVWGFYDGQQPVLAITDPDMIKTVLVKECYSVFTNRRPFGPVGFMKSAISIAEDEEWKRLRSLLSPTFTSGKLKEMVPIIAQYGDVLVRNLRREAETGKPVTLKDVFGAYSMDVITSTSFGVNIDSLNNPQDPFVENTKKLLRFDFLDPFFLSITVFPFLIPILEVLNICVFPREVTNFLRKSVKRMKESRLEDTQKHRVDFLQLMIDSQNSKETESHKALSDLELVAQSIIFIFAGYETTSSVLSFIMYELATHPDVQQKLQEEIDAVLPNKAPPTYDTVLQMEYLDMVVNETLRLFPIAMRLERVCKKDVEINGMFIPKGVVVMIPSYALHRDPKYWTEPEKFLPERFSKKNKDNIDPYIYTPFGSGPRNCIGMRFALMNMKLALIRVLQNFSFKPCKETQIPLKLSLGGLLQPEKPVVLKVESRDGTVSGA

[11] = Oral bioavailability in mouse at 100 mg/kg; type: ADME, organism-based; details: in vivo
[12] = Protein binding in human serum; type: ADME, cell-free; details: read-out: PB
[13] = Clearance in mouse plasma at 10 mg/kg, iv; type: ADME, organism-based
[14] = Solubility of the compound; type: physicochemical
Cytochrome P450 2C19 = Cytochrome P450 2C19 (Homo sapiens, UniProt P33261); experiment: Inhibition of CYP2C19 (unknown origin); type: ADME
Chain of Cytochrome P450 2C19 (P33261 whole entry): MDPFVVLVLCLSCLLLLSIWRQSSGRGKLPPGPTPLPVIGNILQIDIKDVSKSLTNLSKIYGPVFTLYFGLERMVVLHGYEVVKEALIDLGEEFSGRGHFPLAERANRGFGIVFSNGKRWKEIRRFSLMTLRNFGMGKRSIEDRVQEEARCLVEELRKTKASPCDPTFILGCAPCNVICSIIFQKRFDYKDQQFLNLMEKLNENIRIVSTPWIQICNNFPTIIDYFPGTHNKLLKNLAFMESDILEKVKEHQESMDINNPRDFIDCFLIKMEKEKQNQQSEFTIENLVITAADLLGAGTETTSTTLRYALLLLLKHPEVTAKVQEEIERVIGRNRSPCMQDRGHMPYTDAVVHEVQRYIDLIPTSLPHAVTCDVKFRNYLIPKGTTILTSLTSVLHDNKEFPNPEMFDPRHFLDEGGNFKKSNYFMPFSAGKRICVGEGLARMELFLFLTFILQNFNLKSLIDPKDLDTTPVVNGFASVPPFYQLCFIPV

Cytochrome P450 2C8 = target: T2, Cytochrome P450 2C8 (Homo sapiens, UniProt P10632); experiment: Inhibition of CYP2C8 (unknown origin); type: ADME
T2 sequence (P10632 whole entry): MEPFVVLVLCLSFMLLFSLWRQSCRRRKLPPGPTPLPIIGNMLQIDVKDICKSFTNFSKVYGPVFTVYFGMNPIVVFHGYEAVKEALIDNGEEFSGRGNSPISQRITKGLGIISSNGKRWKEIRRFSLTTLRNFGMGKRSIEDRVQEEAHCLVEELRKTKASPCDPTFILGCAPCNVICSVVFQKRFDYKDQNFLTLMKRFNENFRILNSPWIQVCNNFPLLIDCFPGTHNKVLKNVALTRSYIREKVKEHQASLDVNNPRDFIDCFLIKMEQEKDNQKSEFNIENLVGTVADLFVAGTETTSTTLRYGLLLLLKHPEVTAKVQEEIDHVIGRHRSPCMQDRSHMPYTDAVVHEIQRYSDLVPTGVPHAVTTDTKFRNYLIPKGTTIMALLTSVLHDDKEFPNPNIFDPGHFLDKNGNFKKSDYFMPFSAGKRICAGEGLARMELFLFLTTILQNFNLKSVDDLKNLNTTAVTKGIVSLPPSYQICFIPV

Cytochrome P450 2C9 = Cytochrome P450 2C9 (Homo sapiens, UniProt P11712); experiment: Inhibition of CYP2C9 (unknown origin); type: ADME
Chain of Cytochrome P450 2C9 (P11712 whole entry): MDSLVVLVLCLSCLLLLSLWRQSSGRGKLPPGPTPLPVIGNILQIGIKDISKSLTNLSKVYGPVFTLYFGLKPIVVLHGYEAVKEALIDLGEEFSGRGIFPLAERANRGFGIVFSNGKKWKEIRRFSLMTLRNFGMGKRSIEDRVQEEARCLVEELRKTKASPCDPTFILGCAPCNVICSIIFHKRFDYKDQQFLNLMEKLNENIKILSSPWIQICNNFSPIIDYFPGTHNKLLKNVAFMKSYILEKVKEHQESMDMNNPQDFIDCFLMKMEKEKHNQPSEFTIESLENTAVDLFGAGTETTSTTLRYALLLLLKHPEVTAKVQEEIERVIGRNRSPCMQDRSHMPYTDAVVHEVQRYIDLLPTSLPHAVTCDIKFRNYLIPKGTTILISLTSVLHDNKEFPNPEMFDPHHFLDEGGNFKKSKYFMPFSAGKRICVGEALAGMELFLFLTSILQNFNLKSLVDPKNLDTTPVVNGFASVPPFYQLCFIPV

Cytochrome P450 3A4 [15] = target: T1, Cytochrome P450 3A4; experiment: Inhibition of CYP3A4 (unknown origin) using testosterone as substrate; type: ADME
[16] = system: Mycobacterium tuberculosis; experiment: Antimycobacterial activity against Mycobacterium tuberculosis H37Rv MC2 6206 by CLSI method; type: functional
Cytochrome P450 2D6 = Cytochrome P450 2D6 (Homo sapiens, UniProt P10635); experiment: Inhibition of CYP2D6 (unknown origin); type: ADME
Chain of Cytochrome P450 2D6 (P10635 whole entry): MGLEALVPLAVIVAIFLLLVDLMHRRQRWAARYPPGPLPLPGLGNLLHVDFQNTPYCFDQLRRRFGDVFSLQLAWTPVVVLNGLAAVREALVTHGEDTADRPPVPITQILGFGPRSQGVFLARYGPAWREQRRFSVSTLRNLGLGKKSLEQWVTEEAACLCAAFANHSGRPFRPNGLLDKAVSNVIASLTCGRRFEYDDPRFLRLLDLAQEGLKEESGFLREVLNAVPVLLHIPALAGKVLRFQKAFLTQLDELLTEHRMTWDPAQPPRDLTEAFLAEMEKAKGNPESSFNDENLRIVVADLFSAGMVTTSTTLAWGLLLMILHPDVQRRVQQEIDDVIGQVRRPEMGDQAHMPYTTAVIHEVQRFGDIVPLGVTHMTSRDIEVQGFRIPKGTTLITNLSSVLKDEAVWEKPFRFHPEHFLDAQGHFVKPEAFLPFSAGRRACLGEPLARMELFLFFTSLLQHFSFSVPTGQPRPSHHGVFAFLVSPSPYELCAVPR

RBCs = experiment: Hemolytic activity in RBC (unknown origin) at 128 ug/ml; type: ADME, cell-based; details: erythrocyte
Cytochrome P450 2B6 = target: T3, Cytochrome P450 2B6 (Homo sapiens, UniProt P20813); experiment: Inhibition of CYP2B6 (unknown origin); type: ADME
T3 sequence (P20813 whole entry): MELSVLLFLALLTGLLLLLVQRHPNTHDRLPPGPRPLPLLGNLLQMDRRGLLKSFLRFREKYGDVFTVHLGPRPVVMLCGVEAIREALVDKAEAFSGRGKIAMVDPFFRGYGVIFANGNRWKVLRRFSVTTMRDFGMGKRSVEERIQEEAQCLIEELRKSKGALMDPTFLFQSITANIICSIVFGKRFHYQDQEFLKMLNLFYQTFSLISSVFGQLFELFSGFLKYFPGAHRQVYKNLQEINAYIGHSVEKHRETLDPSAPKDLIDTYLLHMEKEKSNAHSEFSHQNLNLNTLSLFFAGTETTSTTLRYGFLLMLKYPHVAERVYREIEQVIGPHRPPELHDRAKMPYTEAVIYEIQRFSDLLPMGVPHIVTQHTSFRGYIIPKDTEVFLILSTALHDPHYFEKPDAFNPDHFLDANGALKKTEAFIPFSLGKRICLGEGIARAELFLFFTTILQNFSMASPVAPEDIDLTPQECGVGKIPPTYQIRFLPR

[17] = system: Mycobacteroides abscessus; experiment: Antimycobacterial activity against Mycobacterium abscessus assessed as reduction in viable colony forming unit after 5 days by time-kill assay relative to control; type: functional
[18] = system: Mycobacteroides abscessus; experiment: Bacteriostatic activity against Mycobacterium abscessus assessed as reduction in viable colony forming unit after 3 days by time-kill assay; type: functional, organism-based

In the case of CC1CC(C(=O)Nc2nc3ccc(SC(F)(F)F)cc3s2)CC(C)(C)C1 (centres undefined), the MIC [1] was 16 µg/mL (≈ 39.8 µM), the MIC [2] was > 64 µg/mL and the MIC [3] was 0.5 µg/mL (≈ 1.24 µM). The MIC [4] was 0.5 µg/mL (≈ 1.24 µM), the MIC [5] was 2 µg/mL (≈ 4.97 µM) and the MIC (Mycobacterium avium) was > 64 µg/mL. The MIC [6] was > 64 µg/mL, the MIC [7] was 0.25 µg/mL (≈ 0.621 µM) and the MIC [8] was 64 µg/mL (≈ 159 µM). For the same molecule, the MIC (Mycobacteroides chelonae) was 0.12 µg/mL (≈ 0.298 µM) and the MIC [9] was 8 µg/mL (≈ 19.9 µM).
In the case of CC1CC(C(=O)Nc2nc3ccc(N(C)C)cc3s2)CC(C)(C)C1 (centres undefined), the MIC [1] was 32 µg/mL (≈ 92.6 µM), the MIC [2] was 8 µg/mL (≈ 23.2 µM) and the MIC [3] was 64 µg/mL (≈ 185 µM). The MIC [4] was 16 µg/mL (≈ 46.3 µM), the MIC [5] was > 64 µg/mL and the MIC (Mycobacterium avium) was > 64 µg/mL. The MIC [6] was > 64 µg/mL, the MIC [7] was 4 µg/mL (≈ 11.6 µM) and the MIC [8] was 8 µg/mL (≈ 23.2 µM). The MIC (Mycobacteroides chelonae) was 2 µg/mL (≈ 5.79 µM) and the MIC [9] was 2 µg/mL (≈ 5.79 µM).
For CC1CC(C(=O)Nc2nc3ccc(Br)cc3s2)CC(C)(C)C1 (centres undefined), the pIC50 (Cytochrome P450 3A4 [10]) was < 4.70, the MIC [2] was 0.5 µg/mL (≈ 1.31 µM) and the bioavailability [11] was 75%. For the same molecule, the MIC [3] was 0.25 µg/mL (≈ 0.656 µM), the fraction unbound [12] was < 0.01 and the MIC [4] was 0.5 µg/mL (≈ 1.31 µM). The clearance [13] was 25 mL/min/kg, the MIC [5] was 1 µg/mL (≈ 2.62 µM) and the solubility [14] was “Insoluble”. The MIC (Mycobacterium avium) was > 64 µg/mL, the pIC50 (Cytochrome P450 2C19) was 4.90 and the MIC [6] was > 64 µg/mL. The pIC50 (Cytochrome P450 2C8) was < 4.70, the pIC50 (Cytochrome P450 2C9) was < 4.70 and the pIC50 (Cytochrome P450 3A4 [15]) was < 4.70. For the same molecule, the MIC [7] was 0.5 µg/mL (≈ 1.31 µM), the MIC [16] was 2 µg/mL (≈ 5.24 µM) and the pIC50 (Cytochrome P450 2D6) was 5.80. For the same molecule, the MIC [8] was 0.5 µg/mL (≈ 1.31 µM), the MIC (Mycobacteroides chelonae) was 0.5 µg/mL (≈ 1.31 µM) and the MIC [9] was 0.12 µg/mL (≈ 0.315 µM). For the same molecule, the Activity (RBCs) was “Non-Toxic” and the pIC50 (Cytochrome P450 2B6) was 4.89.
Work on COc1ccc2nc(NC(=O)C3CC(C)CC(C)(C)C3)sc2c1 (centres undefined) yielded an MIC [1] of 1 µg/mL (≈ 3.01 µM), an MIC [2] of 2 µg/mL (≈ 6.02 µM) and an MIC [4] of 1 µg/mL (≈ 3.01 µM). It also gave an MIC [5] of 2 µg/mL (≈ 6.02 µM), an MIC (Mycobacterium avium) of 16 µg/mL (≈ 48.1 µM) and an MIC [6] of 8 µg/mL (≈ 24.1 µM). The MIC [7] was 0.5 µg/mL (≈ 1.5 µM), the MIC [16] was 8 µg/mL (≈ 24.1 µM) and the MIC [8] was 1 µg/mL (≈ 3.01 µM). For the same molecule, the MIC (Mycobacteroides chelonae) was 0.25 µg/mL (≈ 0.752 µM) and the MIC [9] was 1 µg/mL (≈ 3.01 µM).
Molecule CC12CC3CC(C)(C1)CC(C(=O)Nc1nc4ccccc4s1)(C3)C2 has an MIC [1] of 1 µg/mL (≈ 2.94 µM), an MIC (Mycobacterium avium) of 2 µg/mL (≈ 5.87 µM) and an MIC [6] of 2 µg/mL (≈ 5.87 µM). It also gave an MIC [16] of 4 µg/mL (≈ 11.7 µM).
Work on CC12CC3CC(C)(C1)CC(C(=O)Nc1nc4ccc(OC(F)(F)F)cc4s1)(C3)C2 yielded an MIC [1] of 0.25 µg/mL (≈ 0.589 µM), an MIC [2] of 0.25 µg/mL (≈ 0.589 µM) and an Activity [17] of 2 deltalog10CFU. It also gave an MIC [3] of 0.25 µg/mL (≈ 0.589 µM), an MIC [4] of 0.25 µg/mL (≈ 0.589 µM) and an MIC [5] of 0.25 µg/mL (≈ 0.589 µM). It also gave an MIC (Mycobacterium avium) of 2 µg/mL (≈ 4.71 µM), an MIC [6] of 1 µg/mL (≈ 2.36 µM) and an MIC [7] of 0.25 µg/mL (≈ 0.589 µM). For the same molecule, the MIC [16] was 1 µg/mL (≈ 2.36 µM), the MIC [8] was 0.25 µg/mL (≈ 0.589 µM) and the Activity [18] was “Active”. For the same molecule, the MIC (Mycobacteroides chelonae) was 0.25 µg/mL (≈ 0.589 µM) and the MIC [9] was 0.12 µg/mL (≈ 0.283 µM).
In the case of O=C(Nc1nc2ccc(OC(F)(F)F)cc2s1)C1CCCCC1, the MIC [1] was 32 µg/mL (≈ 92.9 µM), the MIC [2] was > 64 µg/mL and the MIC [3] was > 64 µg/mL. For the same molecule, the MIC [4] was 16 µg/mL (≈ 46.5 µM), the MIC [5] was > 64 µg/mL and the MIC (Mycobacterium avium) was > 64 µg/mL. The MIC [6] was > 64 µg/mL, the MIC [7] was > 64 µg/mL and the MIC [16] was 64 µg/mL (≈ 186 µM). The MIC [8] was > 64 µg/mL, the MIC (Mycobacteroides chelonae) was > 64 µg/mL and the MIC [9] was > 64 µg/mL.
For CC1CC(C)CC(C(=O)Nc2nc3ccc(C(F)(F)F)cc3s2)C1 (centres undefined), the pIC50 (Cytochrome P450 3A4 [10]) was < 4.70, the MIC [2] was 1 µg/mL (≈ 2.81 µM) and the bioavailability [11] was 53%. The MIC [3] was 0.25 µg/mL (≈ 0.701 µM), the fraction unbound [12] was < 0.01 and the MIC [4] was 1 µg/mL (≈ 2.81 µM). For the same molecule, the clearance [13] was 28.3 mL/min/kg, the MIC [5] was 2 µg/mL (≈ 5.61 µM) and the solubility [14] was “Insoluble”. For the same molecule, the MIC (Mycobacterium avium) was > 64 µg/mL, the pIC50 (Cytochrome P450 2C19) was < 4.70 and the MIC [6] was > 64 µg/mL. The pIC50 (Cytochrome P450 2C8) was < 4.70, the pIC50 (Cytochrome P450 2C9) was < 4.70 and the pIC50 (Cytochrome P450 3A4 [15]) was < 4.70. The MIC [7] was 0.5 µg/mL (≈ 1.4 µM), the MIC [16] was 4 µg/mL (≈ 11.2 µM) and the pIC50 (Cytochrome P450 2D6) was 5.85. For the same molecule, the MIC [8] was 2 µg/mL (≈ 5.61 µM), the MIC (Mycobacteroides chelonae) was 1 µg/mL (≈ 2.81 µM) and the MIC [9] was 0.25 µg/mL (≈ 0.701 µM). For the same molecule, the Activity (RBCs) was “Non-Toxic” and the pIC50 (Cytochrome P450 2B6) was < 4.70.
